The values below come from patent US5506354A, “Imidazolylpiperazinyl steroids” (The Upjohn Company, priority 1992, dated 1996).

Where a name gives a salt, the structure may show the parent alone.

One assay relates to angiogenesis. Briefly: Chick embryo assay of Folkman (inhibition of angiogenesis / tumor growth). The format is in vivo. Particulars: 50 μg/10 μl in the presence of heparin. How it is done:
According to this procedure compounds which are considered to be "active" (i.e. antiangiogenic) give an avascular zone of 4 mm or greater in some embryos when tested at 50 μg/10 μl in the presence of 50 μg/10μ of heparin.

A further assay relates to arachidonic acid. Briefly: Arachidonic Acid Antagonism Assay (AAAA), LD50 of sodium arachidonate. The format is in vivo, Charles River male CF-1 mice. Particulars: for arachidonic acid antagonism (activity in words): test compound IV 15 min before sodium arachidonate, LD50 outside 95% confidence interval of control. How it is done: Since these metabolites contribute to the pathological problems associated with stroke, spinal trauma and head injury, compounds which antagonize arachidonic acid are useful in treating stroke, spinal trauma and head injury.
While not necessary to determine arachidonic acid antagonism, the above assay has been modified as follows: Charles River male CF-1 mice weighing 18-22 g are treated IV with the test compound dissolved in 1.0% Tween-80 and 0.1% hydrochloric acid in distilled water, 0.2 ml total volume. Fifteen minutes later sodium arachidonate (90% pure) in physiological (normal) saline is injected into the tail vein. The LD50 is measured using the Spearman-Karber method with a log dose interval of 0.05 (N=6). Compounds which elevate the LD50 outside of the 95% confidence interval of the control LD50 are considered to be "active".

For another assay, the system named is interleukin-1. Briefly: Inhibition of interleukin-1 induced T cell proliferation. It counts as cell-based. Particulars: for inhibition of interleukin 1 (activity in words): active = greater than 30% at 10^-6 M. From the text:
The inhibition of interleukin-1 induced T cell proliferation assay, Proc. Nat. […] Since people with arthritis make excess interleukin 1, compounds which inhibit the activity of interleukin 1 are useful in the treatment of arthritis. According to this procedure compounds which inhibit the activity of interleukin 1 greater that 30% at 10^-6 M are considered to be "active".

The test system of a further assay is MDA formation. The experiment in a line: Malonyldialdehyde (MDA) Formation Assay (rat brain synaptosomes). The format is biochemical. Particulars: 10 min at 37°, pH 7.0; active = 50% or more at 200 μM or less. The protocol:
Since lipid peroxidation is involved in the pathophysiology of center nervous system trauma, compounds which inhibit MDA formation are useful in treating the conditions listed below.
While not necessary to determine MDA formation, the above assays have been modified as follows: rat brain synaptosomes are prepared as described in the Example about the conjugated diene assay, except that the final wash of the synaptosomes and final suspension are in physiological (normal) saline in which the pH has been adjusted to 7.0. The synaptosomes are incubated for 10 min at 37° in physiological (normal) saline pH 7.0 (total volume=100 ul) containing; 10 ul synaptosomal suspension, 10% DMSO plus or minus drug, 150 uM Fe^+++ and 50 uM Fe++. The incubation is started by the rapid addition of iron to the otherwise complete reaction. The iron solutions are prepared fresh as ferric chloride and ferrous ammonium sulfate in argon-purged water. Following the 10 min incubation, the reaction is stopped by the addition of 500 ul ice-cold 12% trichloroacetic acid prepared in 0.5N hydrochloric acid. Water (300 ul) is then added along with 100 ul of freshly prepared thiobarbituric acid (3.3% in 0.5N sodium hydroxide) and 10 ul of 5 mM desferrioxamine. The sample is then heated in a boiling water bath for 20 minutes. The samples are cooled and centrifuged for 15 minutes at 1500×g and the absorbence of the supernatant fraction is read at 532 nm. The % inhibition of MDA formation is calculated by dividing the absorbance of sample containing drug by the absorbence of samples incubated without drug. Reaction blanks are samples incubated in the absence of iron. A compound that inhibits MDA formation by 50% or more at a concentration of 200 μM or less is considered "active".

In the case of `C[C@H]1C[C@@H]2[C@H]([C@@H](O)C[C@@]3(C)[C@H]2CC[C@]3(O)C(=O)CN2CCN(c3ccccn3)CC2)[C@@]2(C)C=CC(=O)C=C12` [Example 21, 11β,17α-dihydroxy-6α-methyl-21-[4-(2-pyridinyl)-1-piperazinyl]pregna-1,4-diene-3,20-dione], in the assay with angiogenesis, the “% of Embryos with 4 mm or Greater Avascular Zone” value turned out to be 91% and the “inhibition of angiogenesis (activity in words)” value (shortened to “inhibition of angiogenesis”) is given as “demonstrate inhibition of angiogenesis”. For the same compound, in the assay on arachidonic acid, the “arachidonic acid antagonism (activity in words)” value (shortened to “arachidonic acid antagonism”) is “demonstrate arachidonic acid antagonism”. Moreover, the “inhibition of interleukin 1 (activity in words)” value in the assay on interleukin-1 is “demonstrate inhibition of interleukin 1”.

For `CN(CCN(C)c1ccccn1)CC(=O)[C@@]1(O)CC[C@H]2[C@@H]3CCC4=CC(=O)CC[C@]4(C)C3=CC[C@@]21C` [Example 24, 17α-hydroxy-21-[methyl[2-(methyl-2-pyridinylamino)ethyl]-aminopregna-4,9(11)-diene-3,20-dione dihydrochloride], the “inhibition of angiogenesis” value in the assay on angiogenesis is given as “demonstrate inhibition of angiogenesis”. For the same compound, the “arachidonic acid antagonism” value in the assay with arachidonic acid is given as “demonstrate arachidonic acid antagonism”.

With `COc1ccc(CCN(CC(=O)[C@@]2(O)CC[C@H]3[C@@H]4CCC5=CC(=O)CC[C@]5(C)C4=CC[C@@]32C)Cc2cc(OC)c(OC)c(OC)c2)cc1OC` [Example 37, 17α-hydroxy-21-[[2-(3,4-dimethoxy-phenyl)ethyl]-[3,4,5-trimethoxyphenyl)methyl]amino]pregna-4,9(11)diene-3,20-dione hydrochloride], the “inhibition of angiogenesis” value in the assay with angiogenesis is given as “demonstrate inhibition of angiogenesis”. In the assay with interleukin-1, the “inhibition of interleukin 1 (activity in words)” value is given as “demonstrate inhibition of interleukin 1”.

Consider `COc1ccccc1N1CCN(CC(=O)[C@@]2(O)CC[C@H]3[C@@H]4CCC5=CC(=O)CC[C@]5(C)[C@H]4CC[C@@]32C)CC1.Cl.Cl.O` [Example 41, 17α-hydroxy-21-[4-(2-methoxyphenyl)-1-piperazinyl]pregn-4-ene-3,20-dione dihydrochloride hydrate], for which the “% of Embryos with 4 mm or Greater Avascular Zone” value in the assay on angiogenesis came to 80%. The “arachidonic acid antagonism” value in the assay on arachidonic acid is recorded as “demonstrate arachidonic acid antagonism”.

With `COc1ccc(CCN(CC(=O)[C@@]2(O)CC[C@H]3[C@@H]4CCC5=CC(=O)CC[C@]5(C)C4=CC[C@@]32C)Cc2ccc(N(C)C)cc2)cc1OC` [Example 51, 17α-hydroxy-21-[[2-(3,4-dimethoxyphenyl)ethyl]-4-(dimethylamino)-phenyl]methyl]amino]pregna-4,9(11)-3,20-dione hydrochloride], the “arachidonic acid antagonism” value in the assay with arachidonic acid is on record as “demonstrate arachidonic acid antagonism”.

With `CCN(CC)c1cc(N2CCN(CC(=O)[C@@]3(O)CC[C@H]4[C@@H]5CCC6=CC(=O)CC[C@]6(C)[C@H]5CC[C@@]43C)CC2)nc(N(CC)CC)n1` [Example 53, 21-[4-[2,6-bis(diethylamino)4-pyrimidinyl]-1-piperazinyl]-17α-hydroxypregn-4-ene-3,20-dione], in the assay with arachidonic acid, the “arachidonic acid antagonism” value was “demonstrate arachidonic acid antagonism”.

Regarding `C[C@]12CCC(=O)C=C1CC[C@@H]1C2=CC[C@@]2(C)[C@H]1CC[C@]2(O)C(=O)CN1CCN(Cc2ccccn2)CC1` [Example 54, 17α-hydroxy-21-[4-(2-pyridinylmethyl)-1-piperazinyl]-pregna-4,9(11)-diene-3,20-dione (E)-2-butenedioate 1:1 salt], the “arachidonic acid antagonism” value in the assay on arachidonic acid is “demonstrate arachidonic acid antagonism”.

Turning to `CCN(CC)c1cc(N2CCN(C(=O)[C@@]3(O)CC[C@H]4[C@@H]5CCC6=CC(=O)CC[C@]6(C)[C@H]5CC[C@@]43C)CC2)nc(N(CC)CC)n1` [Example 57], the “% of Control LD50 100 mg/kg” value in the assay with arachidonic acid (100 mg/kg, test compound IV) was 124%. In addition, in the assay on arachidonic acid, the “arachidonic acid antagonism” value is “demonstrate arachidonic acid antagonism”.

Take `C=CCNc1nc(NCC=C)nc(N2CCN(CC(=O)[C@@]3(O)CC[C@H]4[C@@H]5CCC6=CC(=O)CC[C@]6(C)C5=CC[C@@]43C)CC2)n1.Cl.Cl.O` [Example 60, 17α-hydroxy-21-[4-[4,6-bis(2-propenylamino)-1,3,5-triazin-2-yl]-1-piperazinyl]pregna-4,9(11)-diene-3,20-dione dihydrochloride hydrate]: the “arachidonic acid antagonism” value with arachidonic acid was “demonstrate arachidonic acid antagonism”.

For `C[C@]12C=CC(=O)C=C1CC[C@@H]1C2=CC[C@@]2(C)[C@H]1CC[C@]2(O)C(=O)CN1CCN(c2cc(N3CCCC3)nc(N3CCCC3)n2)CC1.Cl.Cl.O` [Example 74, 17α-hydroxy-21-[4-[2,6-di-(1-pyrrolidinyl)-4-pyrimidinyl]-1-piperazinyl] pregna-1,4,9(11)-triene-3,20-dione dihydrochloride hydrate], the “arachidonic acid antagonism” value with arachidonic acid is on record as “demonstrate arachidonic acid antagonism”.

As for `CCN(CC)c1cc(N2CCN(CC(=O)[C@@]3(O)CC[C@H]4[C@@H]5CCC6=CC(=O)C=C[C@]6(C)C5=CC[C@@]43C)CC2)nc(N(CC)CC)n1.Cl.Cl.O` [Example 75, 21-[4-[2,6-bis(diethylamino)4-pyrimidinyl]-1-piperazinyl]-17α-hydroxypregna-1,4,9(11)-triene-3,20-dione dihydrochloride hydrate], in the assay with arachidonic acid, the “arachidonic acid antagonism” value is listed as “demonstrate arachidonic acid antagonism”.

As to `C[C@]12CCC(=O)C=C1CC[C@@H]1C2=CC[C@@]2(C)[C@H]1CC[C@]2(O)C(=O)CN1CCOCC1` [Example 93, 17α-hydroxy-21-(4-morpholino)-pregna4,9(11)-diene-3,20-dione (E)-2-butanedioate (1:1) salt], in the assay with arachidonic acid, the “arachidonic acid antagonism” value is given as “demonstrate arachidonic acid antagonism”.

On to `C[C@]12CC(=O)[C@H]3[C@@H](CCC4=CC(=O)CC[C@@]43C)[C@@H]1CC[C@@H]2C(=O)CN1CCN(c2cc(N3CCCC3)nc(N3CCCC3)n2)CC1.Cl.Cl` [Example 94, 21-[4-[2,6-bis(1-pyrrolidinyl)-4-pyrimidinyl]-1-piperazinyl]pregn-4-ene-3,11,20-trione dihydrochloride], for which the “inhibition of interleukin 1 (activity in words)” value in the assay on interleukin-1 is “demonstrate inhibition of interleukin 1”.

One may read the % Inhibition as the change of the read-out against control, counted positive when it falls. A high value points to a response far below the control. Regarding `CCN(CC)c1ccc(N(C)C)c(N2CCN(CC(=O)[C@@]3(O)CC[C@H]4[C@@H]5CCC6=CC(=O)CC[C@]6(C)C5=CC[C@@]43C)CC2)n1.Cl.Cl` [Example 96, 21-[4-[6-(diethylamino)-3-(dimethylamino)-2-pyridinyl]-1-piperazinyl]-17α-hydroxypregna-4,9(11)-diene-3,20-dione dihydrochloride], the “inhibition of interleukin 1 (activity in words)” value in the assay on interleukin-1 is given as “demonstrate inhibition of interleukin 1”. The “% Inhibition at 10^-6 M” value in the assay on interleukin-1 (interleukin 1, 10^-6 M) amounted to 77%.

For `C[C@]12CC[C@H]3[C@@H](CCC4=CC(=O)C=C[C@@]43C)[C@@H]1CC[C@@H]2C(=O)CN1CCN(c2cc(N3CCCC3)nc(N3CCCC3)n2)CC1.Cl.Cl` [Example 97, 21-[4-[2,6-di-(1-pyrrolidinyl)-4-pyrimidinyl]-1-piperazinyl]-pregna-1,4-diene-3,20-dione dihydrochloride], the “inhibition of angiogenesis” value in the assay on angiogenesis is “demonstrate inhibition of angiogenesis”. Further, the “inhibition of interleukin 1 (activity in words)” value with interleukin-1 is given as “demonstrate inhibition of interleukin 1”.

Take `CN1CCN(CC(=O)[C@@]2(O)CC[C@H]3[C@@H]4CCC5=CC(=O)CC[C@]5(C)C4=CC[C@@]32C)CC1` [Example 101, 17α-hydroxy-21-(4-methyl-1-piperazinyl)pregna-4,9(11)-diene-3,20-dione]: the “inhibition of interleukin 1 (activity in words)” value in the assay with interleukin-1 is reported as “demonstrate inhibition of interleukin 1”.

Turning to `CC(CN1CCN(c2cc(N3CCCC3)nc(N3CCCC3)n2)CC1)[C@H]1CC[C@H]2[C@@H]3CCC4=CC(=O)CC[C@]4(C)[C@H]3CC[C@]12C.Cl` (some centres unmarked) [Example 107, 20-Methyl-21-[4-(2,6-bis(1-pyrrolidinyl)-4-pyrimidinyl)-1-piperazinyl]pregna-4-ene-3-one hydrochloride], the “inhibition of MDA formation (activity in words)” value with MDA formation was “demonstrate such activity”.
